Laboratory results published in EP0123485A1, “Colon-specific prodrug, the preparation and uses thereof” (priority 1983, dated 1984).

How the values were obtained:
[1] = Recovery of steroid glycoside and free steroid from intestinal contents and tissues after intragastric administration; format: in vivo, Sprague-Dawley rats; conditions: rat, in vivo, po
Description: Male, Sprague-Dawley rats (ca 250 g) were maintained on laboratory rat chow and water ad lib. These rats were fasted overnight (16 hr.) prior to administration of glucoside or free steroid. Water bottles were removed from the cages at least 30 min prior to drug administration. Prednisolone glucoside, 2, (7.5 mg) or dexamethasone glucoside, 1, (7.5 mg) was administered by gastric intubation as a solution (0.5 mL) of water/95% ethanol (3:1). Prednisolone, 4, (5.25 mg) or dexamethasone, 3, (5.1 mg) was administered as a solution (0.5 mL) of water/95% ethanol (1:1). After the appropriate interval of time -3, 4, 5 or 6 hr.- the animals were sacrificed by carbon dioxide anesthesia followed by thoractomy. The small intestine and cecum were removed and cut into segments. Contents were separated from the tissues by rinsing the segments with cold, 0.9% saline (5.0 mL). The contents were immediately diluted to 30 mL with methanol. The tissues were suspended in 0.01 M KH2P04 (5.0 mL). Then an internal standard, either prednisolone, 4, or dexamethasone, 3, depending on the experimental steroid, was added to all the samples. Both the contents and tissues were then homogenized with a Polytron Homogenizer (Brinkman Inst. Co.) at med. speed for 1-2 min. The contents were then diluted to 40 mL total volume with methanol. The tissues were diluted to 25 mL total volume with methanol. All the samples were centrifuged (5,000 g, 15 min) and then the supernatant solutions were passed through membrane filters (0.45 micrometers, Versapor 800). The samples (1.4 mL) were then diluted with 0.01 M KH2PO4 (0.6 mL) and 20 microliters of the resulting solution injected directly onto the HPLC column for analysis.

[2] = KM(app) and Vmax determinations (Eadie-Hofstee plots); format: in vitro ADME, rat; conditions: 15 min, 37 C
Description: KM(app) and VMax Determinations. The KM(app)-Vmax for the hydrolysis of p-NP-glc and p-NP-gal were determined using pooled cecal homogenates (200 mL) as described above. A range of substrate (56-1000 micromolar; final volume 2.25 mL) concentrations, spanning their apparent KM, was used for each reaction. The amount of cecal homogenate used was 0.04 mL. Velocities were obtained, in duplicate, at 37 °C in a shaking water bath and the reaction stopped by addition of 0.2 N NaOH (0.25 mL) after 15 min. Release of p-nitrophenol was measured spectrophotometrically at 403 nm. Eadie-Hofstee plots were used to determine the KM(app) (micromolar) and Vmax (micromolar/min/g) of both reactions. The wet weight (g), measured immediately after removal and pooling, was used throughout.
Again, cecal contents from four rats were pooled, weighed, diluted (100 mL, 0.01 M phosphate buffer, pH 7.0) and homogenized. A range of substrate concentrations (0.5-48 micromolar, final volume 2.5 mL) spanning the apparent KM, was used for each reaction. The amount of cecal homogenate used was 0.8 mL. Reactions were run, in duplicate, at 37°C in a shaking water bath. After 15 min, the reactions were stopped by removing aliquots (0.3 mL) and quenching them with MeOH (4.7 mL). […] Again, Eadie-Hofstee plots were used to determine the KM(app) and VMax.

[3] = Rate of hydrolysis in homogenized cecal contents; conditions: for hydrolysis by cecal contents, comparison in words: cecal content homogenates; for Sp. act. / Tot. act.: cecal contents, 37 C
Description: (§1) (The entire small intestine was divided into two, equal length segments to give PSI and DSI.) Gastrointestinal contents were obtained from male, Sprague-Dawley rats (300-400 g) which had been maintained on a stock diet (Purina rat chow) and water ad libitum. The intestinal contents of each section were pooled from four animals for each assay. […] Following removal, the contents were quickly weighed, then diluted to 100 milliliters (stomach, PSI, and DSI) or 200 milliliters (cecum) with cold 0.01 M phosphate buffer, pH 7.0. […] Homogenates were then stored on ice (ca 30 min). […] The reaction was run at 37 °C in a shaking water bath. The reaction was stopped after 10, 20, or 30 min by addition of 0.2 N NaOH (0.25 milliliters).
(§2) Stomach and PSI contents were diluted to 50 mL with 0.01 M phosphate buffer, pH 7.0, DSI contents to 25 mL, and cecal contents to 200 mL, prior to homogenization. The homogenates (2.1 mL of stomach, PSI, and DSI and 1.7 mL of cecum) were added to the appropriate substrate solution (0.01 M phosphate buffer, pH 7.0) to give 1.0 mM substrate in a total volume of 2.5 mL. At various times up to 30 min, aliquots (0.3 mL) were removed and quenched with MeOH (4.7 mL). After centrifugation (5,000 g, 10 min), the samples were diluted (1:1) with 0.01 M KH2PO4 and 20 microliters of the resulting solution was injected directly onto the HPLC column for analysis.

[4] = Rate of hydrolysis in homogenized stomach contents; conditions: 37 C
[5] = Rate of hydrolysis in homogenized distal small intestine contents; conditions: for Sp. act. / Tot. act.: DSI contents, 37 C
Description: as §1, §2

[6] = Rate of hydrolysis in homogenized proximal small intestine contents; conditions: PSI contents, 37 C
[7] = physchem; format: physicochemical; conditions: n-octanol / 0.01 M phosphate buffer pH 7.0, 37 C, agitated 30 min
Description: The partitioning of prodrugs and free steroids between n-octanol and an aqueous phase (0.01 phosphate buffer, pH 7.0) were determined at 37 °C. Both octanol and buffer were saturated with the relevant aqueous or organic phase before use. […] The intitial concentration of steroid was 10 mM dissolved in the organic phase. The amount of glycoside and free steroid in the aqueous phase at equilibrium was measured spectrophotometrically at 239 nm for the dexamethasone and fludrocortisone compounds and 242 nm for the prednisolone and hydrocortisone compounds. The concentration of glycoside or free steroid in the octanol phase was determined by difference.

[8] = prodrug 0.5-48 micromolar, 0.8 mL cecal homogenate, release of free steroid by HPLC, listed as glucoside 5
[9] = 1.0 mM prodrug, release of free steroid by HPLC
[10] = prodrug 0.5-48 micromolar, 0.8 mL cecal homogenate, release of free steroid by HPLC, listed as glucoside 7
[11] = prodrug 0.5-48 micromolar, 0.8 mL cecal homogenate, release of free steroid by HPLC, listed as galactoside 9
[12] = prodrug 0.5-48 micromolar, 0.8 mL cecal homogenate, release of free steroid by HPLC, listed as galactoside 10
[13] = prodrug 0.5-48 micromolar, 0.8 mL cecal homogenate, release of free steroid by HPLC, listed as galactoside 11
[14] = prodrug 0.5-48 micromolar, 0.8 mL cecal homogenate, release of free steroid by HPLC, listed as galactoside 12
[15] = pH 7.0, 1.0 mM p-nitrophenyl substrate, p-nitrophenol at 403 nm
[16] = pH ca 5.0, 1.0 mM p-nitrophenyl substrate, p-nitrophenol at 403 nm
[17] = p-nitrophenyl substrate 56-1000 micromolar, 0.04 mL cecal homogenate, p-nitrophenol at 403 nm

Compound | Sp. act. [3, 9] | Tot. act. [3, 9] | Sp. act. [4, 9] | Tot. act. [4, 9] | Sp. act. [5, 9] | Tot. act. [5, 9] | Sp. act. [6, 9] | Tot. act. [6, 9] | other results
C[C@@H]1C[C@H]2[C@@H]3CCC4=CC(=O)C=C[C@]4(C)[C@@]3(F)[C@@H](O)C[C@]2(C)[C@@]1(O)C(=O)CO [Compound 3, 9 alpha-Fluoro-11 beta, 17 alpha-21 trihydroxy-16 alpha-methyl-3, 20-dioxopregna-1,4-diene, reference compound] |  |  |  |  |  |  |  |  | recovery at 3 h [1]: 3.9%; free steroid recovered in the cecum, as equivalent of the administered dose ([1]; 5 h): 44%
CC12CCC(=O)C=C1CCC1C2C(O)CC2(C)C1CCC2(O)C(=O)COC1OC(CO)C(O)C(O)C1O [Compound 5, 11 beta, 17 alpha-Dihydroxy-3, 20-dioxopregna-4-en-21-yl beta-D-glucopyranoside] | 30.5 nmoles/min/g wet weight | 0.76 µmol/min | 5.5 nmoles/min/g wet weight | 0.09 µmol/min | 39.2 nmoles/min/g wet weight | 0.70 µmol/min | 15.9 nmoles/min/g wet weight | 0.10 µmol/min | Km [2, 8]: 5.7 µM; Vmax [2, 8]: 2.6 µM/min/g; hydrolysis by cecal contents, comparison in words [3]: hydrolyzed more slowly than the other glucoside prodrugs
C[C@]12CCC(=O)C=C1CC[C@@H]1[C@@H]2[C@@H](O)C[C@@]2(C)[C@H]1CC[C@]2(O)C(=O)CO [Compound 6, 11 beta, 17 alpha-21-Trihydroxy-3, 20-dioxopregna-4-ene] |  |  |  |  |  |  |  |  | Log P [7]: 1.54
CC12CCC(=O)C=C1CCC1C3CCC(O)(C(=O)COC4OC(CO)C(O)C(O)C4O)C3(C)CC(O)C12F [Compound 7, 9 alpha-Fluoro-11 beta, 17 alpha-dihydroxy-3, 20-dioxopregna-4-en-21-yl beta-D-glucopyranoside] | 42.0 nmoles/min/g wet weight | 1.4 µmol/min | 7.7 nmoles/min/g wet weight | 0.14 µmol/min | 33.0 nmoles/min/g wet weight | 0.43 µmol/min | 12.3 nmoles/min/g wet weight | 0.08 µmol/min | Km [2, 10]: 4.4 µM; Vmax [2, 10]: 2.4 µM/min/g; hydrolysis by cecal contents, comparison in words [3]: hydrolyzed more slowly than the other glucoside prodrugs
CC1CC2C3CCC4=CC(=O)C=CC4(C)C3(F)C(O)CC2(C)C1(O)C(=O)COC1OC(CO)C(O)C(O)C1O [Compound 9, 9 alpha-Fluoro-11 beta, 17 alpha-dihydroxy-16 alpha-methyl-3, 20-dioxopregna-1,4-dien-21-yl beta-D-galactopyranoside] | 322 nmoles/min/g wet weight | 6.5 µmol/min | 2.0 nmoles/min/g wet weight | 0.004 µmol/min | 29.3 nmoles/min/g wet weight | 0.41 µmol/min | 11.7 nmoles/min/g wet weight | 0.004 µmol/min | Km [2, 11]: 13.3 µM; Vmax [2, 11]: 3.9 µM/min/g; hydrolysis by DSI contents, comparison in words ([5]; homogenates of DSI contents): more resistant to hydrolysis than the other prodrugs
CC12C=CC(=O)C=C1CCC1C2C(O)CC2(C)C1CCC2(O)C(=O)COC1OC(CO)C(O)C(O)C1O [Compound 10, 11 beta, 17 alpha-dihydroxy-3,20-dioxopregna-l,4-dien-21-yl beta-D-galactopyranoside] | 665 nmoles/min/g wet weight | 13 µmol/min | 12.1 nmoles/min/g wet weight | 0.19 µmol/min | 122 nmoles/min/g wet weight | 1.72 µmol/min | 49.3 nmoles/min/g wet weight | 0.23 µmol/min | Km [2, 12]: 20 µM; Vmax [2, 12]: 10.3 µM/min/g
CC12CCC(=O)C=C1CCC1C2C(O)CC2(C)C1CCC2(O)C(=O)COC1OC(CO)C(O)C(O)C1O [Compound 11, 11 beta, 17 alpha-Dihydroxy-3, 20-dioxopregna-4-en-21-yl beta-D-galactopyranoside] | 592 nmoles/min/g wet weight | 11.9 µmol/min | 12.5 nmoles/min/g wet weight | 0.02 µmol/min | 110 nmoles/min/g wet weight | 1.6 µmol/min | 42.5 nmoles/min/g wet weight | 0.02 µmol/min | Km [2, 13]: 16.7 µM; Vmax [2, 13]: 10.2 µM/min/g
CC12CCC(=O)C=C1CCC1C3CCC(O)(C(=O)COC4OC(CO)C(O)C(O)C4O)C3(C)CC(O)C12F [Compound 12, 9 alpha-Fluoro-11 beta, 17 alpha-dihydroxy-3, 20-dioxopregna-4-en-21-yl beta-D-galactopyranoside] | 642 nmoles/min/g wet weight | 12.9 µmol/min | 7.0 nmoles/min/g wet weight | 0.01 µmol/min | 56.7 nmoles/min/g wet weight | 0.80 µmol/min | 12.5 nmoles/min/g wet weight | 0.01 µmol/min | Km [2, 14]: 33.3 µM; Vmax [2, 14]: 20.6 µM/min/g
O=[N+]([O-])c1ccc(O[C@@H]2O[C@H](CO)[C@@H](O[C@@H]3O[C@H](CO)[C@@H](O)[C@H](O)[C@H]3O)[C@H](O)[C@H]2O)cc1 [p-NP-cel, p-nitrophenyl-beta-D-cellobioside, reference compound] |  |  |  |  |  |  |  |  | Sp. act. [3, 15]: 96.5 nmoles/min/g wet weight; Tot. act. [3, 15]: 2.6 µmol/min; Sp. act. [4, 16]: 34.2 nmoles/min/g wet weight; Tot. act. [4, 16]: 0.35 µmol/min; Sp. act. [5, 15]: 26.0 nmoles/min/g wet weight; Tot. act. [5, 15]: 0.25 µmol/min; Sp. act. [6, 15]: 7.2 nmoles/min/g wet weight; Tot. act. [6, 15]: 0.05 µmol/min
O=[N+]([O-])c1ccc(O[C@@H]2O[C@H](CO)[C@H](O)[C@H](O)[C@H]2O)cc1 [p-NP-gal, p-nitrophenyl-beta-D-galactoside, reference compound] |  |  |  |  |  |  |  |  | Km [2, 17]: 166 µM; Vmax [2, 17]: 1233 µM/min/g
O=[N+]([O-])c1ccc(O[C@@H]2O[C@H](CO)[C@@H](O)[C@H](O)[C@H]2O)cc1 [p-NP-glc, p-nitrophenyl-beta-D-glucoside, reference compound] |  |  |  |  |  |  |  |  | Km [2, 17]: 360 µM; Vmax [2, 17]: 697 µM/min/g
